{
  "source": "paper PMC9658984",
  "about": "“Acetylation Enhances the Anticancer Activity and Oral Bioavailability of 5-Demethyltangeretin” (International Journal of Molecular Sciences, 2022)",
  "key": {"[1]": {"tested_on": "Bcl-xL", "test": "Western blot protein expression, Bcl-xL", "format": "cell-based, human", "conditions": "PC-3 cells, 10 µM", "description": "(§1) Western blot was performed to analyze the protein expression in the PC-3 Cells. The cells were exposed to indicated concentrations of 5-ATAN for various time periods at 37 °C. Then, they were washed with cold PBS and harvested, and a Western blot was conducted as previously described."}, "[2]": {"tested_on": "PC-3 human prostate cancer cells", "test": "MTT cell viability assay", "format": "cell-based", "conditions": "PC-3 cells, 48 h", "description": "PC-3 human prostate cancer cell line was obtained from the Bioresource Collection and Research Center (Hsinchu, Taiwan) and maintained in RPMI medium with 10% FBS and 1% penicillin-streptomycin (PS). The cells were incubated in a 5% CO2 humidified atmosphere at 37 °C. TAN, 5-DTAN, and 5-ATAN were dissolved in DMSO to prepare a 20 mM sample stock, and the final ratio of the DMSO in the treatment medium was 0.1%.\n(§2) PC-3 cells were seeded in 96-well plates at a density of 2.5 × 10^3 cells/well and allowed to attach for 24 h. The medium was changed to serum-free RPMI supplemented with 0–20 μM TAN, 5-DTAN, or 5-ATAN, and then incubated for an additional 48 h. The cell viability was determined by the MTT assay and represented as a percentage of the growth of the DMSO-treated cells. FACScan flow cytometer (Becton Dickinson, San Jose, CA, USA) was used to analyze the cell cycle distribution as previously mentioned. Briefly, PC-3 cells treated with various concentrations of 5-DTAN or 5-ATAN for 48 h were trypsinized and gently fixed in 70% ice-cold ethanol and stored at −20 °C for at least 24 h. Then, the cells were washed with cold phosphate-buffered saline (PBS), followed by incubation with 40 μg/mL PI, 0.1 mg/mL RNase A, and 0.1% TritonX-100 in the dark for 30 min at room temperature. Subsequently, the cell cycle distribution of the PI-stained cells was analyzed by a FACScan flow cytometer, and the results were analyzed and calculated using ModFit LT Ver. 3.0 software. The proportion of the sub-G1 phase was quantitated and represented as the apoptotic ratio. Furthermore, a QIAamp DNA mini kit was used to extract DNA from the PC-3 cells treated with 5-DTAN or 5-ATAN for 48 h. Then, the extracted DNA was loaded on a 2% agarose gel containing HealthView^TM Nucleic Acid Stain (Genomics, New Taipei, Taiwan) for electrophoresis at 50 V. The gel was visualized under UV light, and the DNA fragmentation pattern was photographed."}, "[3]": {"tested_on": "caspase-3", "test": "Caspase-3 activity by flow cytometry (CaspGLOW staining)", "format": "cell-based, human", "conditions": "PC-3 cells, 48 h", "description": "The PC-3 cells were treated with the indicated concentration of 5-DTAN or 5-ATAN for 48 h, and then cells were collected and stained by a CaspGLOW^TM Fluorescein Active Caspase-3 Staining Kit (Thermo Fisher Scientific, MA, USA) or 3,3′-dihexyloxacarbocyanine iodide (DiOC6, Merck Millipore, Burlington, MA, USA) for caspase-3 activity and mitochondria membrane potential analysis, respectively. The percentages of caspase-3-activated or DiOC6-positive cells were measured using a flow cytometer and calculated by the CellQuest Pro software."}, "[4]": {"tested_on": "CL1-5 cell xenograft", "design": "method as in PMID 26569090", "conditions": "20 mg/kg i.p., CL1-5 cell xenograft mice; cited from earlier work"}, "[5]": {"tested_on": "Cdc25c", "test": "Western blot protein expression, Cdc25c", "format": "cell-based, human", "conditions": "PC-3 cells, 10 µM, time-dependent", "description": "as §1"}, "[6]": {"tested_on": "Cyclin B1", "test": "Western blot protein expression, Cyclin B1", "format": "cell-based, human", "conditions": "PC-3 cells, 10 µM, time-dependent", "description": "as §1"}, "[7]": {"tested_on": "PC-3 cells", "test": "Wound healing cell migration assay", "format": "cell-based, human", "conditions": "24 h", "description": "The colony formation assay was conducted using a procedure modified from the previous report. PC-3 cells were seeded in 6-well plates at a density of 500 cells/well and allowed to attach for 24 h. Subsequently, the cells were treated with various concentrations of 5-ATAN. After 14 days of incubation, the colonies formed were observed by crystal violet staining and photographed. The wound healing assay was performed to assess the effect of 5-ATAN on the migration ability of PC-3 cells. Cells were seeded into a 6 cm dish at a cell density of 1 × 10^6 cells/well. After being cultured at 37 °C for 24 h, a 200 µL yellow pipette tip was used to scrape a gap in the middle of the dish. After washing twice with 1X PBS solution, the medium was replaced with fresh, serum-free medium containing different concentrations of 5-ATAN and incubated for 24 h. Then, the images were taken with an inverted phase contrast microscope at a magnification of 100×, and the Image J software was used for the measurement of the wound width. The percentage of cell migration (% of control) was calculated by measuring the movement of the cells into the scratch area after 24 h of treatment with DMSO or 5-ATAN."}, "[8]": {"tested_on": "Cdc2", "test": "Western blot protein expression, Cdc2", "format": "cell-based, human", "conditions": "PC-3 cells, 10 µM, only after 48 h", "description": "as §1"}, "[9]": {"tested_on": "PC-3 cells", "test": "DNA fragmentation (agarose gel electrophoresis)", "format": "cell-based, human", "conditions": "48 h", "description": "as §2, with “Then, the extracted DNA was loaded on a 2% agarose gel containing HealthView^TM Nucleic Acid Stain (Genomics, New Taipei, Taiwan) for electrophoresis at 50 V. The gel was visualized under UV light, and the DNA fragmentation pattern was photographed.” left out"}, "[10]": {"tested_on": "MMP-9", "test": "Western blot protein expression, MMP-9", "format": "cell-based, human", "conditions": "PC-3 cells, 5 µM, effect enhanced with treatment time", "description": "as §1"}},
  "data": [
    {"smiles": "COc1ccc(-c2cc(=O)c3c(OC(C)=O)c(OC)c(OC)c(OC)c3o2)cc1", "note": "[5-ATAN, 5-acetyloxy-6,7,8,4′-tetramethoxyflavone]", "values": [
      {"measurement": "Expression of Bcl-xL", "setting": "[1]", "value": "marked decrease"},
      {"measurement": "IC50", "setting": "[2]; Homo sapiens, MTT", "value": 5.1, "unit": "µM"},
      {"measurement": "IC50 fold lower than that of 5-DTAN", "setting": "[2]", "value": 2.3, "unit": "fold"},
      {"measurement": "IC50 fold lower than that of TAN", "setting": "[2]", "value": 3.4, "unit": "fold"},
      {"measurement": "Percentage of caspase-3 activity", "setting": "[3]; 2.5 μM", "value": "7.2 ± 0.6", "unit": "%"},
      {"measurement": "Percentage of caspase-3 activity", "setting": "[3]; 5 μM", "value": "9.1 ± 1.7", "unit": "%"},
      {"measurement": "Percentage of caspase-3 activity", "setting": "[3]; 10 μM", "value": "18.8 ± 02.4", "unit": "%"},
      {"measurement": "Tumor growth inhibitory rate", "setting": "[4]", "value": 43, "unit": "%"},
      {"measurement": "Expression of Cdc25c", "setting": "[5]", "value": "dramatically down-regulated"},
      {"measurement": "Expression of Cyclin B1", "setting": "[6]", "value": "dramatically down-regulated"},
      {"measurement": "Suppression of migration compared to the control", "setting": "[7]; 1.25 µM", "value": 35.5, "unit": "%"},
      {"measurement": "Suppression of migration compared to the control", "setting": "[7]; 2.5 µM", "value": 48.5, "unit": "%"},
      {"measurement": "Suppression of migration compared to the control", "setting": "[7]; 5 µM", "value": 73.6, "unit": "%"},
      {"measurement": "Expression of Cdc-2", "setting": "[8]", "value": "reduced"},
      {"measurement": "Concentration at which DNA ladders were observed", "setting": "[9]", "value": "higher than 5 μM"},
      {"measurement": "Expression of MMP-9", "setting": "[10]", "value": "significantly inhibited"}
    ]}
  ]
}
